According to PubChem BioAssay AID588471 (The Scripps Research Institute Molecular Screening Center, 2011):

Tests used:
Assay in all cases: PubChem AID 588471; call rule not given here
[1] = target: Protein-arginine deiminase type-2 (Homo sapiens) (UniProt Q9Y2J8); settings: recombinant PAD1-4, BAEE citrulline colorimetric absorbance; PAD2
[2] = target: Protein-arginine deiminase type-4 (Homo sapiens) (UniProt Q9UM07); settings: recombinant PAD1-4, BAEE citrulline colorimetric absorbance; PAD4
[3] = target: Protein-arginine deiminase type-3 (Homo sapiens) (UniProt Q9ULW8); settings: recombinant PAD1-4, BAEE citrulline colorimetric absorbance; PAD3
Protein-arginine deiminase type-3 (Homo sapiens), sequence (Q9ULW8 whole entry, looked up): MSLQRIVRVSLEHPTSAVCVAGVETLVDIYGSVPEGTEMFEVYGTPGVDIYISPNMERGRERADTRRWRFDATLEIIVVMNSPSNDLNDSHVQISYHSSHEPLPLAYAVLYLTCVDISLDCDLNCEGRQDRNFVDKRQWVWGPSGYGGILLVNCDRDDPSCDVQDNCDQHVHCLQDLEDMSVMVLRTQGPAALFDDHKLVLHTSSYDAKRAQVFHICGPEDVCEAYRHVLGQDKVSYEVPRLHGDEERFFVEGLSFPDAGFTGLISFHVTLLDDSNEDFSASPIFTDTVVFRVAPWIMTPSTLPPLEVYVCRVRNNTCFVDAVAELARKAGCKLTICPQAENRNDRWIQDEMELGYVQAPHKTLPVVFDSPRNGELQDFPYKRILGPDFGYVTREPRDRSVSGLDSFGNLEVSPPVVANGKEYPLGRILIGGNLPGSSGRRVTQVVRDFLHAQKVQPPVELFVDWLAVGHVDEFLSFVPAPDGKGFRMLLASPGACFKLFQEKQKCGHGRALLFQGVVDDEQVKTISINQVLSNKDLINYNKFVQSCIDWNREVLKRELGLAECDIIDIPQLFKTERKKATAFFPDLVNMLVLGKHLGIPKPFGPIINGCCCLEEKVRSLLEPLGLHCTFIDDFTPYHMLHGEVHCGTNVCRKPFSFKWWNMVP

[4] = target: Protein-arginine deiminase type-1 (Homo sapiens) (UniProt Q9ULC6); settings: recombinant PAD1-4, BAEE citrulline colorimetric absorbance; PAD1
Protein-arginine deiminase type-1 (Homo sapiens), sequence (Q9ULC6 whole entry, looked up): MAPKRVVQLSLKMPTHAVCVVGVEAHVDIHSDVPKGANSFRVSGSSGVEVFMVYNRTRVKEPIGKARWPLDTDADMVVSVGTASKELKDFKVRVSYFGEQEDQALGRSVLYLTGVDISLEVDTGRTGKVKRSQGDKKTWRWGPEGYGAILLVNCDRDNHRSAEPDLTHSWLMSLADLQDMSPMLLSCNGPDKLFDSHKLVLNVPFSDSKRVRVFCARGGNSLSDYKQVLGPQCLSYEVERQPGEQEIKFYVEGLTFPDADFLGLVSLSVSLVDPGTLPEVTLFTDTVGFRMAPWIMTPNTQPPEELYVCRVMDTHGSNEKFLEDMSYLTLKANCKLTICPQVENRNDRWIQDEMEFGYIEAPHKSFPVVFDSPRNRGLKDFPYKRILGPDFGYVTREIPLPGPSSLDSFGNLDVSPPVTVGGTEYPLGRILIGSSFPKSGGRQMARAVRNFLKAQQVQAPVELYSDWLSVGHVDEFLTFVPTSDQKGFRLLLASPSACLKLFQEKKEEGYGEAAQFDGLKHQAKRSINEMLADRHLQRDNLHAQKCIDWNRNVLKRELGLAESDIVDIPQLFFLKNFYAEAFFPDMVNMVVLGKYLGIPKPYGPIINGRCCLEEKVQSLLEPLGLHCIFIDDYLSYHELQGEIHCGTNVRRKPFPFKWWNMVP

Measured: IC50

Protein-arginine deiminase type-4 (Homo sapiens), sequence (Q9UM07 whole entry, looked up): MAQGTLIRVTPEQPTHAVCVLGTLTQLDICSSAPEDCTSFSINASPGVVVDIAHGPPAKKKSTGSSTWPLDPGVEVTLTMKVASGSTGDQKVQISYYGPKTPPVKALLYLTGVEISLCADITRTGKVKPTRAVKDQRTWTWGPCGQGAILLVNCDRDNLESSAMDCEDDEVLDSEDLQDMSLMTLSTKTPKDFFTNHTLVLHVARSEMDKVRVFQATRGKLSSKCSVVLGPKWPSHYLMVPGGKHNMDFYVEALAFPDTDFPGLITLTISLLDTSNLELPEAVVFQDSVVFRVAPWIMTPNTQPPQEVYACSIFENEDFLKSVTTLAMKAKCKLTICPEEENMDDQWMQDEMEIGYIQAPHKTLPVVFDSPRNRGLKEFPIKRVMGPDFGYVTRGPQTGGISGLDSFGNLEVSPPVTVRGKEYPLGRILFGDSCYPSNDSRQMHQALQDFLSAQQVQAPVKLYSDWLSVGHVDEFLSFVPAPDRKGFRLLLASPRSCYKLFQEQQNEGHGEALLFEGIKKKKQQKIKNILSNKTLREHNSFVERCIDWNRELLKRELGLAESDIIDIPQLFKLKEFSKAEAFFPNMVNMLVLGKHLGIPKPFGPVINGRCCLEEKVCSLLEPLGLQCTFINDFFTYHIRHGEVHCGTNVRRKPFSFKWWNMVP
Protein-arginine deiminase type-2 (Homo sapiens), sequence (Q9Y2J8 whole entry, looked up): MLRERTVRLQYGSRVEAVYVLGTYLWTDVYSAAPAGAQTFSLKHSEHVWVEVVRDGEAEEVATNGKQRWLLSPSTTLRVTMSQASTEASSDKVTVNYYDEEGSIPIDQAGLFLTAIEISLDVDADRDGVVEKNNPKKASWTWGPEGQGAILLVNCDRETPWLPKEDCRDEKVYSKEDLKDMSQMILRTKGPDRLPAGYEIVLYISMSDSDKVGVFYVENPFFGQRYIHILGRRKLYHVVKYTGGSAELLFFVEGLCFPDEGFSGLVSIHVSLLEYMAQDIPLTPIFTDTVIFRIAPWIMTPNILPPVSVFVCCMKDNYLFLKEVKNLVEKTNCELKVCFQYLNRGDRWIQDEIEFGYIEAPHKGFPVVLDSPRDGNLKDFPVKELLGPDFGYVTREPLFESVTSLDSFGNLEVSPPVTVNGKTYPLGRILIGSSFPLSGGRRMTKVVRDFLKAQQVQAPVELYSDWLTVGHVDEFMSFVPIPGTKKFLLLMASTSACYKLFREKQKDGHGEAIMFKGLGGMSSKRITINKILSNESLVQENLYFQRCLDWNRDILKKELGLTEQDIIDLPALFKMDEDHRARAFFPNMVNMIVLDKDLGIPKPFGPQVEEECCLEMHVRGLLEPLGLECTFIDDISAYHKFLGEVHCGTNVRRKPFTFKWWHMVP

NC1=CC(=O)c2ccc(-c3ccccn3)nc2C1=O
active: [1] 320 nM | [2] 640 nM | [3] 130 nM | [4] 950 nM
